This note sets out measurements from ChEMBL document CHEMBL4602657, “Design and evaluation of Nrf2 activators with 1,3,4-oxa/thiadiazole core as neuro-protective agents against oxidative stress in PC-12 cells” (Bioorg Med Chem Lett, 2020).

What is called IC50 is the concentration that gives 50% inhibition. The logD is lipophilicity at a set pH, counting ionised and neutral species. A higher logD goes with higher lipophilicity.

The subject of data set [1] is SH-SY5Y. Nature of the data set: Neuroprotective activity in human SH-SY5Y cells assessed as reduction in H2O2-induced cell damage at 10 to 20 uM preincubated for 6 hrs followed by H2O2 treatment and measured after 12 hrs by MTT assay. Format: functional, cell-based. On the technique in general: Formazan colour is commonly taken as a measure of viable cells.
Data set [2] concerns SH-SY5Y. Nature of the data set: Cytotoxicity against human SH-SY5Y cells assessed as reduction in cell viability at 100 uM by MTT assay. Format: cell-based.
Data set [3] deals with T1, Nuclear factor erythroid 2-related factor 2 (Homo sapiens) (UniProt Q16236).
T1 sequence (whole entry): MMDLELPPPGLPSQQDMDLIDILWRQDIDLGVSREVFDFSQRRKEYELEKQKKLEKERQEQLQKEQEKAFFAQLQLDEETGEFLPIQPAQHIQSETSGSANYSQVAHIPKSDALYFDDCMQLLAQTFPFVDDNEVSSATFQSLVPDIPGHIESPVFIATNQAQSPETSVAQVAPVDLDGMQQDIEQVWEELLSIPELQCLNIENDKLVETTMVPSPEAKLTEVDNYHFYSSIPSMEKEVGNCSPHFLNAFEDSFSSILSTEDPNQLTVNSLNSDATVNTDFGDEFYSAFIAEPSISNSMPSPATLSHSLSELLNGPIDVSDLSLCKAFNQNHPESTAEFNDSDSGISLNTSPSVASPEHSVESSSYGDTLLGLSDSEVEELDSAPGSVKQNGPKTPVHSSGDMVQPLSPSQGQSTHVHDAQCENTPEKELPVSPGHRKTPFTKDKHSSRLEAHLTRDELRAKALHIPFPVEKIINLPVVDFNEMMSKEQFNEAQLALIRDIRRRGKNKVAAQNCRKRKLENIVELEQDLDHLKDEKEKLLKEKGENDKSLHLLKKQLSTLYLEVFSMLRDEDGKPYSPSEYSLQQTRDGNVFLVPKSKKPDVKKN
Put plainly: Activation of Nrf2 in human HepG2-ARE-C8 cells assessed as fold change at 40 uM measured after 12 hrs by luciferase reporter gene assay relative to control. Format: cell-based. On the technique in general: In a reporter assay the amount or activity of a reporter protein is the signal.

For data set [4], the target named is T1, Nuclear factor erythroid 2-related factor 2 (Homo sapiens). Put plainly: Activation of Nrf2 in human HepG2-ARE-C8 cells assessed as fold change at 10 uM measured after 12 hrs by luciferase reporter gene assay relative to control. Format: cell-based.
Data set [5] has the same target. Put plainly: Activation of Nrf2 in human HepG2-ARE-C8 cells assessed as fold change at 80 uM measured after 12 hrs by luciferase reporter gene assay relative to control. The format is cell-based.
For data set [6] the target is unchanged. Put plainly: Activation of Nrf2 in human HepG2-ARE-C8 cells assessed as fold change at 0.1 uM measured after 12 hrs by luciferase reporter gene assay relative to control. Format: cell-based.
The subject of data set [7] is SH-SY5Y. Nature of the data set: Neuroprotective activity in human SH-SY5Y cells assessed as reduction in H2O2-induced cell damage at 5 uM preincubated for 6 hrs followed by H2O2 treatment and measured after 12 hrs by MTT assay. The format is functional, cell-based.
Data set [8] deals with T1, Nuclear factor erythroid 2-related factor 2 (Homo sapiens). Put plainly: Activation of Nrf2 in human HepG2-ARE-C8 cells assessed as fold change at 20 uM measured after 12 hrs by luciferase reporter gene assay relative to control. The format is cell-based.
The target is the same in data set [9]. Put plainly: Activation of Nrf2 in human HepG2-ARE-C8 cells assessed as fold change at 1 uM measured after 12 hrs by luciferase reporter gene assay relative to control. Format: cell-based.
Data set [10] concerns PC-12. Nature of the data set: Cytotoxicity against rat PC12 cells assessed as reduction in cell viability incubated for 24 hrs by MTT assay. The format is cell-based. Conditions: PC-12, 24 h.
For data set [11], the system named is PC-12. Nature of the data set: Upregulation of HO-1 protein level in rat PC12 cell incubated for 12 hrs by Western blot analysis. The format is functional, cell-based.
In data set [12] the test system is PC-12. Put plainly: Upregulation of NQ-O1 protein level in rat PC12 cell incubated for 12 hrs by Western blot analysis. Format: functional, cell-based. A general note: A western blot detects proteins with antibodies after separation by electrophoresis.
Data set [13] relates to PC-12. Nature of the data set: Upregulation of HO-1 mRNA in rat PC12 cell incubated for 12 hrs by qRT-PCR analysis. The format is functional, cell-based.
Data set [14] in a line: Permeability of the compound by PAMPA. The format is ADME. Conditions: read-out: permeability.
The test system of data set [15] is PC-12. Put plainly: Upregulation of Nrf2 protein level in rat PC12 cell incubated for 12 hrs by Western blot analysis. The format is functional, cell-based.
Data set [16] deals with PC-12. Put plainly: Upregulation of NQ-O1 mRNA in rat PC12 cell incubated for 12 hrs by qRT-PCR analysis. Format: functional, cell-based.
In data set [17] the test system is PC-12. Nature of the data set: Upregulation of Nrf2 mRNA in rat PC12 cell incubated for 12 hrs by qRT-PCR analysis. Format: functional, cell-based.
A short description of data set [18]: Lipophilicity, logD of the compound at pH 7.4. The format is physicochemical. Conditions: buffer.
Data set [19] can be described thus: Intrinsic aqueous solubility of the compound. Format: physicochemical. Conditions: read-out: Intrinsic_solubility.

≈ marks a conversion by molar mass, not a printed value. Calls of active or inactive are those of the source. The rule behind the calls is not given here. A value given as a limit tells only on which side of the number the result lay.

As to `Fc1ccc(-c2nnc(-c3ccc4nc[nH]c4c3)s2)cc1`, the outcome in [1] was Active. Moreover, the Activity entry in data set [2] was “Non-Toxic”. Also, the fold change (FC) in [3] was 22.3; in data set [4] it was 13.1; in [5] it was 9.9; in [6] it was 1.6; in data set [8] it was 14.9; in data set [9], 3.25. In data set [7], the outcome was inactive. Besides, the IC50 in data set [10] was above 500 µM.

In the case of `O=[N+]([O-])c1ccc(-c2nnc(-c3ccc4nc[nH]c4c3)o2)cc1`, the outcome in data set [1] was inactive. Further, the Activity entry in data set [2] is given as “Non-Toxic”. Further, the fold change (FC) in [3] was 20.1; in data set [4] it was 7.68; in [5] it was 33.8; in [6], 1.5; in [8], 12.2; in [9], 1.9. Also, the outcome in data set [7] was Active. For the same compound, the IC50 in [10] was above 100 µM.

For the compound `Cc1ccc(-c2nnc(-c3ccc4nc[nH]c4c3)o2)cc1`, the fold change (FC) in data set [3] amounted to 4.95; in [4], 3.25; in [5] it was 6.6; in [6], 1.4; in data set [8] it was 3.35; in data set [9] it was 1.45.

For the compound `c1ccc(-c2nnc(-c3ccc4nc[nH]c4c3)o2)cc1`, the fold change (FC) stood at 13.5 in data set [3]; 6.7 in data set [4]; 19.1 in data set [5]; 1.7 in data set [6]; 9.15 in data set [8]; 2.35 in [9].

Regarding `CCCCc1ccc(-c2nnc(-c3ccc4nc[nH]c4c3)o2)cc1`, the outcome in [1] was Active. In addition, the Activity entry in data set [11] is “Dose-dependent effect”; in [2], “Non-Toxic”; in data set [12] it was “Dose-dependent effect”; in data set [13], “Dose-dependent effect”; in data set [15], “Dose-dependent effect”; in data set [16], “Dose-dependent effect”. For the same compound, the Activity entry in data set [17] was “Dose-dependent effect”. The fold change (FC) in [3] came to 24.6; in [4], 14.8; in [5], 19.6; in [6] it was 1.8; in data set [8], 15.9; in data set [9] it was 6.73. The result in [7] was inactive. Moreover, in [14], the Papp turned out to be 12.3 ×10⁻⁶ cm/s. Also, in data set [10], the IC50 was above 100 µM.

On to `c1ccc(-c2nnc(-c3ccc4nc[nH]c4c3)s2)cc1`, for which the fold change (FC) in data set [3] came to 13.8; in [4], 8.95; in data set [5], 15.7; in data set [6] it was 1.7; in data set [8] it was 8.18; in [9], 2.03.

`Fc1ccc(-c2nnc(-c3ccc4nc[nH]c4c3)o2)cc1`: the fold change (FC) in data set [3] was 8.73; in data set [4] it was 2.6; in data set [5], 24.4; in [6] it was 1.58; in data set [8], 6.83; in data set [9], 1.28. The pH-dependent lipophilicity (logD) in data set [18] amounted to 2.89. In addition, the solubility in data set [19] turned out to be 102 µM (≈ 28.7 µg/mL).

For `Fc1cccc(-c2nnc(-c3ccc4nc[nH]c4c3)o2)c1`, the fold change (FC) worked out at 1.75 in data set [3]; 1.35 in data set [4]; 1.63 in data set [5]; 1.45 in data set [6]; 1.65 in data set [8]; 2.38 in [9].

Take `COc1cccc(-c2nnc(-c3ccc4nc[nH]c4c3)o2)c1`: the fold change (FC) is 2.41 in data set [3]; 1.72 in [4]; 7.5 in data set [5]; 1.64 in data set [6]; 1.83 in data set [8]; 1.72 in data set [9].

In the case of `N#Cc1ccc(-c2nnc(-c3ccc4nc[nH]c4c3)o2)cc1`, the fold change (FC) in data set [3] worked out at 1.78; in data set [4], 1.33; in [5], 2.83; in data set [6] it was 1.4; in [8], 2.35; in [9] it was 1.65.

Consider `Brc1ccc(-c2nnc(-c3ccc4nc[nH]c4c3)o2)cc1`, for which the fold change (FC) amounted to 6.23 in [3]; 7.98 in data set [4]; 7.98 in data set [5]; 2.05 in data set [6]; 8.08 in [8]; 4.85 in data set [9].

For the compound `O=[N+]([O-])c1ccc(-c2nnc(-c3ccc4nc[nH]c4c3)s2)cc1`, in [1], the result was inactive. In data set [2], the Activity entry was “Non-Toxic”. Further, the fold change (FC) came to 22.2 in [3]; 19.4 in data set [4]; 24.6 in data set [5]; 2.2 in [6]; 17.4 in data set [8]; 5.75 in data set [9]. In addition, the outcome in data set [7] was Active. For the same compound, the IC50 in [10] is above 500 µM.

For the compound `CCCCc1ccc(-c2nnc(-c3ccc4nc[nH]c4c3)s2)cc1`, the fold change (FC) was found to be 1.33 in data set [3]; 2.3 in data set [4]; 1.43 in data set [5]; 1.08 in data set [6]; 1.68 in data set [8]; 2.33 in [9].

Turning to `c1ccc(-c2ccc(-c3nnc(-c4ccc5nc[nH]c5c4)o3)cc2)cc1`, the fold change (FC) in data set [3] was found to be 5.18; in data set [4], 1.58; in data set [5], 9.1; in data set [6], 0.9; in data set [8] it was 3.15; in data set [9] it was 1.6.

For the compound `CC(C)(C)c1cc(O)ccc1O`, the fold change (FC) in data set [3] was found to be 5.1; in [5], 4.73; in [6] it was 1.68; in data set [9], 1.7.
